Paper PMC6934184, “Selective DNA-PKcs inhibition extends the therapeutic index of localized radiotherapy and chemotherapy” (The Journal of Clinical Investigation, 2019)

Biological target: T1, MAPKAPK2 (Homo sapiens, UniProt P49137)
T1 construct: purchased Thermo Fisher Scientific (Life Technologies) SelectScreen
Assay: SelectScreen Z'LYTE
Format: biochemical
Outline: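 Percent values come from Thermo SelectScreen profiling of NU5455, combining activity and binding assays. CSF1R was run in Z'LYTE format at Km app ATP, and CAMK1 in Adapta format with ATP listed at 10.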

T1 sequence (P49137 whole entry): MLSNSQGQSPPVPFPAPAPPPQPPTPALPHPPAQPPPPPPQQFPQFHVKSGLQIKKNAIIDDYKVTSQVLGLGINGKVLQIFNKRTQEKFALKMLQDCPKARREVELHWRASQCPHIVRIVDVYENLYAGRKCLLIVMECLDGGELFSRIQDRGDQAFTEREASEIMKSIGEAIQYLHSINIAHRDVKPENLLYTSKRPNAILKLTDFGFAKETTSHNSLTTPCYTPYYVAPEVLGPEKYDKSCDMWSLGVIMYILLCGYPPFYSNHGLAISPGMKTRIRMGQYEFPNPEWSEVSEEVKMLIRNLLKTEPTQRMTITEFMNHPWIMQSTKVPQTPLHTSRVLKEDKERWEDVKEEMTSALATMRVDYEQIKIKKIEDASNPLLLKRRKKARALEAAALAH

SMILES: CN(C(=O)CN1CCOCC1)c1ccc2sc3c(-c4cccc5c(=O)cc(N6CC7CCC(C6)O7)oc45)cccc3c2c1 [NU5455]
- inhibition at 1 µM: -3.1%
